Experimental data reported in patent US11083706B2, “Lactams for use in the treatment of skin lesions” (priority 2016, dated 2021).
“Also recorded” adds a separate entry of the source.

Assays:
[1] = tested on: PqsR-dependent pqsA::lux promoter fusion; assay: pqsA::lux promoter fusion expression in P. aeruginosa PAO1-L (AQ-dependent QS biosensor); format: cell-based; details: for IC50: Pseudomonas aeruginosa, PAO1, read-out: IC50, pqsA::lux expression; for extent of inhibition of light output / pqsA expression at high concentrations: PAO1 pqsA::lux; for inhibition of pqsA::lux expression in first screening (FIG. 1-3): lactam 100 μM, control LB medium+1% methanol
Procedure: The expression of rhl and las AHL- and the pqsA AQ-synthase genes was evaluated using lux-based lasI (FIG. 1), rhlI (FIG. 2) and pqsA (FIG. 3) chromosomally integrated promoter fusions. Luminescence was quantified as a function of bacterial growth. The applicant further determined that none of the lactams is growth inhibitory at 100 μM using a large number of strains (figure not shown).
To determine the relative inhibitory activities (IC50s) of 4-(4-chlorophenyl)-5-methylene-pyrrol-2-one (Ref. 488) and 5-methylene-4-(p-tolyl)pyrrol-2-one (Ref. 491), dose response curves were constructed using the same biosensor strain (P. aeruginosa PAO1 pqsA::lux; Fletcher et al, 2007; Ilangovan et al 2013). This strain produces light in response to the endogenous production of AQs such as PQS and HHQ.

[2] = tested on: pyocyanin production by PAO1-L; assay: Pyocyanin production by PAO1-L, visual assessment; format: cell-based, P. aeruginosa PAO1-L; details: 488 at 100 μM (vial 2), 8 h at 37° C., PAO1-L culture supernatant
Excerpt: Pyocyanin is a blue redox-active secondary metabolite and a putative signalling molecule in P. aeruginosa (Jayaseelan et al, 2014). The pyocyanin biosynthetic (phz) genes are regulated by QS and in part via the transcriptional regulator PqsR acting through PqsE (Rampioni et al 2011).
Although qualitative, this observation offers further confirmation of the inhibitory effects of lactam 4-(4-chlorophenyl)-5-methylene-pyrrol-2-one (Ref. 488) on AQ-dependent QS.

[3] = biological target: T1, PqsR (Pseudomonas aeruginosa, UniProt Q9I4X0); assay: PQS-dependent pqsA::lux expression in AQ-non-producing PAO1-L ΔpqsA (PqsR antagonism); format: cell-based, P. aeruginosa PAO1-L ΔpqsA
T1 construct: endogenous in cells; host or cells: P. aeruginosa PAO1-L ΔpqsA pqsA::lux (chromosomal reporter fusion)
Procedure: By using the AQ-non producing P. aeruginosa strain PAO1-L ΔpqsA, pqsA::lux, the EC50 value for the native PqsR agonist, PQS was calculated as ˜2 μM (Ilangovan et al. 2013). […]
A partial agonist is a molecule that can bind to and activate a receptor resulting in a non-complete response compared with a full agonist. […] This contrasts with its activity as an antagonist in the presence of 10 or 40 μM PQS.

[4] = tested on: PqsR-independent pathway of pqsA expression; assay: PqsR-independent expression of pqsA'::lux in PAO1-N ΔpqsAHR; format: cell-based, P. aeruginosa PAO1-N ΔpqsAHR; details: presence or absence of 40 μM PQS
Excerpt: PQS is capable of weakly activating pqsA in the absence of PqsR via a mechanism that is not fully understood but appears to depend on the iron chelating properties of PQS. The aim of this experiment was to clarify whether lactam 4-(4-chlorophenyl)-5-methylene-pyrrol-2-one (Ref. 488) is also inhibitory for pqsA expression via the PqsR independent pathway. As previously described, the pqsA′::lux biosensor based on the triple mutant PAO1-N ΔpqsAHR cannot produce AQs and lacks pqsR but still responds to exogenous PQS. This response is however much weaker that the PqsR-dependent response.

[5] = tested on: enzymes (PqsABCD) involved in AQ biosynthesis; assay: HHQ/AQ biosynthesis in PAO1-N ΔpqsAHR pBBR-pqsABCD, TLC with biosensor overlay; format: cell-based, P. aeruginosa PAO1-N ΔpqsAHR; details: 488 200 μM, overnight in LB
Excerpt: To determine whether 4-(4-chlorophenyl)-5-methylene-pyrrol-2-one (Ref. 488) is capable of inhibiting the enzymes (PqsABCD) involved in AQ biosynthesis, the P. aeruginosa PAO1-N ΔpqsAHR was exploited. This mutant cannot produce AQs because the genes coding for the key biosynthetic enzymes (PqsA and PqsH) and regulation (PqsR) have been deleted. To restore AQ production in a PqsR-independent manner in PAO1-N ΔpqsA, the pqsABCD genes were introduced on a plasmid (pBBR pqsABCD; Niewerth et al. 2011). P. aeruginosa PAO1-N ΔpqsAHR and P. aeruginosa PAO1-N ΔpqsAHR pBBR pqsABCD were both incubated overnight in LB with and without 4-(4-chlorophenyl)-5-methylene-pyrrol-2-one (Ref. 488) (200 μM), resuspended to an OD600 1.0. The cultures were extracted with acidified ethyl acetate, the organic phase removed, dried and resuspended in methanol subjected to thin layer chromatography (TLC).
After chromatography using a dichloromethane-methanol mobile phase, the TLC plates were overlaid with a thin agar layer containing the AQ biosensor strain PAO1-L ΔpqsA CTX::pqsA′-luxCDABE (Fletcher et al. 2007) incubated and examined for reporter output (FIG. 13). […] The biosensor strain produces light (FIG. 13 panel C) and pyocyanin (FIG. 13 panel B) in response to AQs that bind to PqsR and activate the pqsA promoter.

T1 sequence (Q9I4X0 whole entry, the tested form may be a part): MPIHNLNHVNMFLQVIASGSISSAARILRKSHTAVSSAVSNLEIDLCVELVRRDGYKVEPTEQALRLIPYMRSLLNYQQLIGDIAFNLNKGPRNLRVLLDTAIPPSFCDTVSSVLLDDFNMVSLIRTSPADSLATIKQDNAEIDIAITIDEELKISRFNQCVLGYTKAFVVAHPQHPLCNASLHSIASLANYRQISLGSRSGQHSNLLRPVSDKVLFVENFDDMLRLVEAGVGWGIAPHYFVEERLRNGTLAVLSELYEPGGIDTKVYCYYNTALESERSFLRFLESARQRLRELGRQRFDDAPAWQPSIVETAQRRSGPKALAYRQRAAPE

Q: Which results are given for `C=C1NC(=O)C=C1c1ccc(Cl)cc1` [Lactam 488, 4-(4-chlorophenyl)-5-methylene-pyrrol-2-one]?
A: IC50 [1]: 22 µM; extent of inhibition of light output / pqsA expression at high concentrations [1]: completely inhibited light output; also recorded: fully knock out the PQS; inhibition of pqsA::lux expression in first screening (FIG. 1-3) [1]: most potent inhibitor; also recorded: inhibition of the pqs-system is the main effect; pyocyanin production (qualitative) [2]: inhibition of pyocyanin production; mode of antagonism of PQS-dependent pqsA::lux expression ([3]; 488 at 0, 50, 100, 200 μM with range of PQS concentrations): competitive antagonist; restoration of light output by PQS in the presence of 488 ([3]; 488 at 50, 100, 200 μM): fully restoring light output in the presence of 50 μM but not 100 μM or 200 μM; partial agonist activity (activation of pqsA expression) ([3]; 488 up to 800 μM, PQS 0 μM, PAO1-L ΔpqsA pqsA'::lux): no partial agonist activity; fold increase of PQS EC50 in the presence of 488 ([3]; fixed concentration of 488 (215 μM)): ~15 fold; effect on PqsR-independent expression of pqsA [4]: small inhibitory effect; inhibition of HHQ biosynthesis [5]: did not inhibit HHQ biosynthesis

Q: `C=C1NC(=O)C=C1c1ccc(C)cc1` [Lactam 491, 5-methylene-4-(p-tolyl)pyrrol-2-one] was tested. Which IC50 [1] did it give?
A: 44 µM

Q: And the “extent of inhibition of light output / pqsA expression at high concentrations” value [1]?
A: did not inhibit pqsA expression as strongly; also recorded: did not give complete knock out

Q: And the “inhibition of pqsA::lux expression in first screening (FIG. 1-3)” value [1]?
A: inhibition of the pqs-system is the main effect
